# Measured values taken from patent US6552077B2, “Albumin-binding compounds that prevent nonenzymatic glycation and that may be used for treatment of glycation-related pathologies” (Exocell, Inc., priority 1996, dated 2003).
# pIC50: −log10 of the molar value. Counter-ions that a name gives are not always drawn.
# Legend:
# cyclo-oxygenase = target: T1, cyclo-oxygenase (Bos taurus, UniProt O62664); test: Cyclo-oxygenase inhibition, conversion of arachidonic acid to prostaglandin E2 in bovine seminal vesicle homogenates; assay type: biochemical; conditions: arachidonic acid to prostaglandin E2, 1-30 minutes, read-out: COX Inhibition IC50
# T1 construct: from tissue; host or cells: bovine seminal vesicles (cellular homogenate)
# T1 sequence (O62664 25-600): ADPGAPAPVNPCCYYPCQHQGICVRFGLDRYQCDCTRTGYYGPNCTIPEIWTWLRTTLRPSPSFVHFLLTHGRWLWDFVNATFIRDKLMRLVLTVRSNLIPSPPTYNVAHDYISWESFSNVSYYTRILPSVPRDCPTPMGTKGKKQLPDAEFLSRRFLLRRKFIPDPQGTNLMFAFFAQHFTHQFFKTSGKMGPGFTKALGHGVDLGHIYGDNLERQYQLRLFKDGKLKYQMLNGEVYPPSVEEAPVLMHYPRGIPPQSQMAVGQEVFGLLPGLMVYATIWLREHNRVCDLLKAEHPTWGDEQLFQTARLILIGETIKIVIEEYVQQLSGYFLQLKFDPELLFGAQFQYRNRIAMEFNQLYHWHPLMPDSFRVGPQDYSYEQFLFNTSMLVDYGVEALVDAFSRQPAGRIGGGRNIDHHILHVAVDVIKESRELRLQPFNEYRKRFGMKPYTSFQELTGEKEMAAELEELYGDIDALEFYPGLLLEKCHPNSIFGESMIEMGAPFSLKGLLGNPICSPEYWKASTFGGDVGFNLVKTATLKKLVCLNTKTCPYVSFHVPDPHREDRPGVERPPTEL
# Protocol: Cellular homogenates of bovine seminal vesicles were incubated with arachidonic acid and the production of prostaglandins was monitored.
# Human albumin [1] = target: T2, Human albumin (Homo sapiens, UniProt P02768); test: Prevention of albumin glycation at physiologically significant sites (ELISA with anti-glycated albumin monoclonal antibody); assay type: biochemical; conditions: for pIC50: human albumin 10 mg/ml, 40 mM glucose, 4 days, compound 1-1000 μM
# Protocol: The performance of paired incubations allowed comparison of the amount of glycated albumin formed under control (0 mM glucose), stimulated (40 mM glucose) and inhibited (test compound plus glucose) conditions.
# glycated albumin = target: T3, glycated albumin (Mus musculus, UniProt P07724); test: Prevention of albumin glycation in vivo, plasma glycated albumin by ELISA; conditions: mice; for Glycated Albumin, Percent change: post vs pre-treatment; for Glycated Albumin, Post-treatment: four hours after last dosing; for Glycated Albumin, Pre-treatment: before treatment
# T3 construct: from tissue; host or cells: mouse plasma (in vivo dosing)
# Excerpt: Blood was taken before the initiation of treatment and four hours after the last dosing at the conclusion of the treatment.
# Mice = test: Urine protein excretion after 8 weeks of treatment; assay type: in vivo
# Protocol: Mice were treated for 8 weeks with 10 mg/kg/day of 2-(3-chlorophenylamino) phenylacetic acid in divided doses. Urine samples were obtained at the initiation and termination of treatment for examination of protein excretion, which measures vascular dysfunction that is associated with glycation-related pathology As shown below, the reduction in glycated albumin was associated with a reduction in urine protein excretion.
# Human albumin [2] = target: T2, Human albumin; test: Anti-glycation activity of 2-(phenylamino)phenylacetic acids (glycated albumin ELISA); assay type: biochemical; conditions: for pIC50: human albumin 10 mg/ml, 0-50 mM glucose, 48-144 hours, 37° C., read-out: Glycation Inhibition IC50; for Antiglycation IC50 versus COX Inhibition IC50 (ratio): ratio of glycation IC50 to cyclo-oxygenase IC50
# Protocol: After dialysis to remove free glucose and compound, the amount of glycated albumin formed was determined by enzyme-linked immunosorbent assay using the monoclonal antibodies known to specifically react with Amadori-glucose adducts in glycated albumin and to be unreactive with the nonglycated protein. The presence of glucose in the incubations promotes the nonenzymatic glycation of albumin, and the performance of paired incubations allows comparison of the amount of glycated albumin formed under control (0 glucose), stimulated (25-50 mM glucose), and inhibited (compound plus glucose) conditions.
# [3] = 5 mg/kg/day intraperitoneal for 5 days
# [4] = 5 mg/kg/day intraperitoneal in divided doses for 5 days
# [5] = 10 mg/kg/day intraperitoneal for 5 days
# [6] = 10 mg/kg/day intraperitoneal in divided doses for 5 days
# T3 sequence (P07724 25-608): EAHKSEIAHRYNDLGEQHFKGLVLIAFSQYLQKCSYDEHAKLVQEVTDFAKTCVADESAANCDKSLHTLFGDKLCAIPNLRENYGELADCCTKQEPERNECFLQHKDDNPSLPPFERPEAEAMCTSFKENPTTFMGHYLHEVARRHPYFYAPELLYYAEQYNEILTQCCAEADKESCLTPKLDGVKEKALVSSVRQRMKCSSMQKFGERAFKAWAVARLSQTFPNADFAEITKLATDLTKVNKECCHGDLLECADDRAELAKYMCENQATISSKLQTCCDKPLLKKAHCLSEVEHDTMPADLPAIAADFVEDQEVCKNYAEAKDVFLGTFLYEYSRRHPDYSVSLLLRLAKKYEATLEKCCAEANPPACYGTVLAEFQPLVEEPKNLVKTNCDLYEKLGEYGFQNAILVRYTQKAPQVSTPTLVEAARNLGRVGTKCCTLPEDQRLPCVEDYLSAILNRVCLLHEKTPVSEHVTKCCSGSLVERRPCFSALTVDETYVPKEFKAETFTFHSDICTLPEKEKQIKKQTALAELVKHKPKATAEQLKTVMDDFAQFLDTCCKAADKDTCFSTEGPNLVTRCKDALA
# T2 sequence (P02768 25-609): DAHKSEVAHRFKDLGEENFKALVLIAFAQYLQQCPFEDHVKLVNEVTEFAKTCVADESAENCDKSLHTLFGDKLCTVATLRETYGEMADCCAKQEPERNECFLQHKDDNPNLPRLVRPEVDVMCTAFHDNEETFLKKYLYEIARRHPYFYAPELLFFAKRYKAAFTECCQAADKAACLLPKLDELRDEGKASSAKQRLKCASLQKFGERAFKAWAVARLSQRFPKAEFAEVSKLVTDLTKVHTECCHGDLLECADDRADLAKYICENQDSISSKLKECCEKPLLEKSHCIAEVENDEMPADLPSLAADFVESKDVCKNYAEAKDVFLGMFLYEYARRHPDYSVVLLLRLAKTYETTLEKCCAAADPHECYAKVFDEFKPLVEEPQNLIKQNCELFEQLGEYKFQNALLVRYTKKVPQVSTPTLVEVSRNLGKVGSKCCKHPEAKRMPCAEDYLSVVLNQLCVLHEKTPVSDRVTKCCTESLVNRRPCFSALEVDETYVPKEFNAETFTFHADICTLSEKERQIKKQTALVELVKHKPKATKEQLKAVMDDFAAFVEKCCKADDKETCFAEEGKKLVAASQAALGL
SMILES,pIC50 (cyclo-oxygenase),pIC50 (Human albumin [2]),Antiglycation IC50 versus COX Inhibition IC50 (ratio) (Human albumin [2]),also measured
"O=C(O)Cc1ccccc1Nc1cccc(Cl)c1 [Example 5, 2-[(3-chlorophenyl)amino]phenylacetic acid]",3.22,4.30,0.08,"ability to prevent glycation of the physiologically important sites (Human albumin [1]; comparison among the compounds of Table 1): greatest ability to prevent glycation; pIC50 (Human albumin [1]): 4.82; Glycated Albumin, Percent change (glycated albumin; [3]): −18.4%; Glycated Albumin, Post-treatment (glycated albumin; [4]): 697 µg/mL; Glycated Albumin, Percent change (glycated albumin; [5]): −45.6%; Glycated Albumin, Post-treatment (glycated albumin; [6]): 352 µg/mL; Glycated Albumin, Pre-treatment (glycated albumin; 5 mg/kg/day group): 854 µg/mL; Glycated Albumin, Pre-treatment (glycated albumin; 10 mg/kg/day group): 647 µg/mL; Urine protein, Termination (Mice; after 8 weeks of 10 mg/kg/day in divided doses): 2.7 μg/24 hrs; Urine protein, Initiation (Mice; at initiation of treatment (baseline)): 7.6 μg/24 hrs"
"O=C(O)Cc1ccccc1Nc1ccccc1 [Example 3, 2-[(phenyl)amino]phenylacetic acid]",3.54,3.81,0.54,
"CC1=C(CC(=O)O)c2cc(F)ccc2/C1=C\c1ccc([S+](C)[O-])cc1 (stereo not drawn) [[Z]-5-fluoro-2-methyl-1 [p-(methylsulfinyl)phenyl] (methylene-1H-indene-3-acetic acid, reference compound]",,,,pIC50 (Human albumin [1]): 1.66
"O=C(O)Cc1ccccc1Nc1ccc(Cl)cc1 [Example 6, 2-[(4-chlorophenyl)amino]phenylacetic acid]",4.01,4.96,0.11,
"O=C(O)Cc1ccccc1Nc1cccc(Cl)c1 (as salt: salt) [Example 5, 2-[(3-chlorophenyl)amino]phenylacetic acid]",,,,melting point: 102 to 103 °C
"O=C(O)Cc1ccccc1Nc1ccc(Cl)c(Cl)c1 [Example 11, 2-[(3,4-dichlorophenyl)amino]phenylacetic acid]",3.85,5.60,0.02,

# Further compounds by rising pIC50 (cyclo-oxygenase), results first:
pIC50 (cyclo-oxygenase),pIC50 (Human albumin [2]),Antiglycation IC50 versus COX Inhibition IC50 (ratio) (Human albumin [2]),SMILES,also measured
4.15,4.20,0.90,"O=C(O)Cc1ccccc1Nc1ccc(Cl)cc1Cl [Example 8, 2-[(2,4-dichlorophenyl)amino]phenylacetic acid]",
4.38,5.00,0.24,"O=C(O)Cc1ccccc1Nc1ccccc1Cl [Example 4, 2-[(2-chlorophenyl)amino]phenylacetic acid]","Glycated Albumin, Percent change (glycated albumin; [3]): −32.5%; Glycated Albumin, Post-treatment (glycated albumin; [4]): 500 µg/mL; Glycated Albumin, Percent change (glycated albumin; [5]): −47.7%; Glycated Albumin, Post-treatment (glycated albumin; [6]): 426 µg/mL; Glycated Albumin, Pre-treatment (glycated albumin; 5 mg/kg/day group): 741 µg/mL; Glycated Albumin, Pre-treatment (glycated albumin; 10 mg/kg/day group): 815 µg/mL"
5.22,3.95,19.0,"Cc1cccc(C)c1Nc1ccccc1CC(=O)O [Example 13, 2-[(2,6-dimethylphenyl)amino]phenylacetic Acid]",
